Measurements: patent US20140356452A1, “Therapeutic Uses of Tetrachlorodecaoxygen (TCDO)” (IBT USA INC., priority 2012, published 2014)

How the values were obtained:
[1] = system: monocytes and large granular lymphocytes; details: rats, cited from earlier work
diabetic foot ulcer = test: Example 6: randomized controlled trial of TCDO as adjunct in diabetic foot ulcer; type: in vivo, human
Description: This randomized controlled trial was undertaken to evaluate the effect of TCDO as an adjunct to the standard treatment of diabetic foot ulcer. A total of 40 participants were randomized into 2 groups of 20. One group underwent standard therapy combined with infusions of TCDO, and 1 underwent standard therapy combined with placebo. The wound severity scores, which vary with the severity of infection and inflammation, necrotic and granulation tissues, and wound depth and area, were assessed weekly for 9 weeks.

[2] = system: radiation-induced, chemical induced and metastatic malignant and benign tumors; details: cited from earlier work
[3] = 4 cycles of 0.5 mL TCDO/kg body weight per day
Description: Patients were then given 4 cycles of WF10 with the daily dose ranging from 0.5 mL/kg body weight to 1.5 mL/kg body weight.

E. coli = details: phagocytosis assay; cited from earlier work
[4] = system: spinal cord injury (SCI) rat model; test: Spinal cord injury rat model: lesion volume; type: in vivo; details: for Percent change in Lesion volume: reduction vs Saline group (group 1), 0.5 ml/kg IV
Description: Animals: Female Sprague-Dawley rats (Harlan Sprague-Dawley, Indianapolis, Ind.), weighing 200-225 grams each were given free access to food and water before the experiment. The animals were anesthetized with ketamine (80 mg/kg) and xylazine (10 mg/kg). Brain temperatures were monitored using a rectal thermometer. The animals' body temperature was maintained at 37° C. by using a water jacketed heating pad. Brain temperature was monitored for 1 hour prior to injury to 6 hours following injury and was recorded at 30-minute intervals.
Experimental Groups. The spinal cord injury model utilized in the studies is described in detail (Rabchevsky et al, 2002; J. Neurosci. Res. 68:7). Young adult female Sprague-Dawley rats received a spinal cord contusion using the Precision Scientific Inc. pneumatic impactor. Female animals were used due to the paralysis associated with the injury and ease of voiding the bladder. Prior to surgery, rats were assigned to different treatment groups based on a randomized block design so that on any given surgery day all treatment groups were included. The rats were anesthetized with ketamine (80 mg/kg) and xylazine (10 mg/kg) before laminectomy was performed at the 10th thoracic vertebra (T10). The vertebral column was stabilized with angled clamps on the upper thoracic (T8) and lumber […] levels and the impactor with a tip diameter of 2 mm was delivered at approximately 50 kdynes onto the exposed, intact dura overlying the dorsal spinal cord. The impactor was immediately removed, the wound irrigated with saline and the muscle and skin openings sutured together.
Drug Administration. Compound was administered in the following paradigm: intravenous injection of saline or drug solutions 15 minutes following injury at 0.5 ml/kg (1×10^4, 5×10^4, and 10×10^4 TCDO). Drug was administered once per day starting at the indicated times and continued for 5 days. The saline control group was run in parallel with the drug-treated groups.
Histology. At the end of the study, the animals were killed and the spinal cord fixed in 4% paraformaldehyde. For analysis, 20 μm cryosections were stained for eriochrome cyanine (EC) to differentiate between white matter and cell bodies to calculate the amount of spared tissue through the lesion site. Immunocytochemical analysis was performed on the tissue. Tissue sparing was determined by computed image analysis from 10 evenly spaced sections through the injured T10 segment. The volume of necrotic tissue divided by the total cross-sectional volume is converted to a percentage and subtracted from 100%. Sections were taken for immunocytochemical analysis for macrophage infiltration
Each animal received induction of 5 i.v. injections for a total of 5×0.5 ml/kg of body weight. […]

[5] = system: monocytes, macrophages and lymphocytes; details: in vitro; cited from earlier work
[6] = system: granulocytes, PBMCs, LGLs, erythropoiesis; details: rats, cited from earlier work
SCI rat study: mortality = type: in vivo; details: 0.5 ml/kg IV once daily 5 days, 6 weeks
Excerpt: Mortality: There were no deaths in this study.

[7] = system: lipopolysaccharide (LPS) from E coli 055B5; details: TCDO 0.2 ml/kg iv twice during the day before iv LPS; without TCDO 346; cited from earlier work
HIV = details: cited from earlier work
[8] = system: humoral and cellular immune responses; details: cited from earlier work
non-healing wounds = test: Example 4: topical TCDO versus saline in 271 patients with non-healing wounds; type: in vivo, human
Description: TCDO was investigated for its effects on non-healing wounds. In the study, 271 patients with non-healing wounds which included post-operative wounds, venous ulcers, arterial ulcers, post traumatic wounds and decubitus ulcers. The patients received either 5 mL of TCDO or saline twice daily applied by compress or directly to the wound for 21 days. […] Irrespective of wound types, wound surface decreased 2 to 4 times more quickly with TCDO treatment compared to saline. […] Adverse events were reported by 7% and 12% of patients treated with saline and TCDO respectively, the most frequent was slight pain.

[9] = biological target: gp120 envelope glycoprotein of HIV-1 (Human immunodeficiency virus type 1 group M subtype B, UniProt P04578); details: pre-incubation with TCDO; cited from earlier work
hematopoietic stem cells = details: mice receiving sublethal doses of irradiation; cited from earlier work
[10] = system: spinal cord injury (SCI) rat model; test: Example 3: TCDO in the spinal cord injury rat model (lesion volume, BBB); type: in vivo
Description: Tetrachlorodecaoxygen (TCDO) was tested for efficacy in the spinal cord injury (SCI) rat model. In order to determine the efficacy of TCDO, rats were subjected to spinal cord injury and 6 weeks of recovery. Rats were injected intravenously with saline or TCDO solutions. Rats received 1 injection regiment: administered 15 minutes after injury. Animals were injected once daily for 5 days following the injury. Treated rats were examined after 1, 2, 3, 4, 5, and 6 weeks for drug behavioral effect. The animals were examined for changes in lesion volume (LV) and Basso, Beattie and Bresnahan (BBB) locomotor test. […] However, by 7 days, TCDO was not effective in reducing the LV or behavioral deficits.

[11] = system: autoimmune disease with skin manifestations; details: cited from earlier work
[12] = system: T-lymphoma cell line ACH2; details: cited from earlier work
activated microglia = details: Kindy et al.; cited from earlier work
[13] = system: macrophages infiltrating a skin blister; details: human wound-healing model; cited from earlier work
wounds [14] = details: applied topically; cited from earlier work
wounds [15] = details: topical; superior to PVP-iodine treatment; cited from earlier work
[16] = after 9 weeks, subgroup analysis, p<0.01 vs placebo
[17] = i.v. once daily 5 days, initiated 15 minutes following injury
[18] = one patient, four cycles at 0.5 mL/kg body weight
[19] = patients, two cycles at 0.5 mL/kg body weight

For Tetrachlorodecaoxygen [TCDO], the “Time for monocyte level to return to normal value after discontinuation” value ([1]; after 90 days of dosing) is listed as 30 days, the “Blood levels of monocytes and large granular lymphocytes” value ([1]; daily for 90 days, 0.33 to 2.0 mL/kg body weight, within four days) is listed as “greater than three times baseline value” and the “Monocyte level elevated over baseline” value ([1]; sixteen days after discontinuation) is listed as “approximately 50%”. For the same substance, the “Wound depth and wound area versus placebo” value (diabetic foot ulcer; after 9 weeks) was “not statistically significant”, the Wound severity score (diabetic foot ulcer; after 9 weeks, standard therapy plus TCDO infusions, n=20, p<0.05 vs placebo) was 1.8±1.9 and the “Infection and inflammation score” value (diabetic foot ulcer; [16]) was 0.0±0.0. For the same substance, the Necrotic tissue score (diabetic foot ulcer; [16]) was 0.0±0.0, the Granulation tissue score (diabetic foot ulcer; after 9 weeks, subgroup analysis, p<0.05 vs placebo) was 0.1±0.3 and the Severe adverse events (diabetic foot ulcer; throughout the observation period) was “No severe adverse events were observed”. The Antitumor effects [2] was “displayed direct antitumor effects”, the Hemolysis [3] was “no clinically relevant hemolysis” and the “TCDO dose to which the concentration of maximal ingestion of E. coli corresponds” value (E. coli) was 0.5 mL/kg-body weight. For the same substance, the “Lesion volume (mm^3)” value ([4]; rat SCI, 1 × 10^4 units TCDO, 0.5 ml/kg IV once daily 5 days from 15 min after injury, day 42, mean ± SD) was “did not show a significant reduction”, the “Percent change in Lesion volume” value ([4]; 1 × 10^4 units TCDO) was 25% and the “Percent change in Lesion volume” value ([4]; 5 × 10^4 units TCDO) was 50%. The “Percent change in Lesion volume” value ([4]; 10 × 10^4 units TCDO) was 65%, the Antigen presentation [5] was “decrease antigen presentation” and the “Macrophage TNF-α expression” value [5] was “decrease macrophage tumor necrosis factor (TNF)-α expression”. For the same substance, the Macrophage-fibroblast cooperation [5] was “enhance macrophage-fibroblast cooperation”, the “Oxidative burst in monocytes” value [5] was “stimulate an oxidative burst in monocytes” and the Phagocytosis [5] was “increase phagocytosis”. The Erythropoiesis ([6]; after total body X-irradiation) was “stimulated erythropoiesis”, the “Proportion of granulocytes, PBMCs and LGLs” value [6] was “increased the proportion of granulocytes, peripheral blood monocytes (PBMCs) and large granular lymphocytes (LGLs)” and the Mortality (SCI rat study: mortality) was “no deaths”. The “LD50 value of LPS after TCDO” value [7] was 518 mg, the “Infectivity of HIV particles” value (HIV; HIV stocks supplemented with TCDO, concentration dependent) was “markedly decreased the infectivity of HIV particles” and the Anti-HIV properties (HIV; in vitro) was “displayed anti-HIV properties”. For the same substance, the “Replication of HIV” value (HIV; persistently infected lymphocytic and monocytic cell lines, peripheral blood mononuclear cells) was “did not affect the replication of HIV”, the “Delayed virus spread of HIV in presence of suboptimal concentrations of zidovudine” value (HIV; simultaneous addition of TCDO) was “could significantly be blocked” and the Humoral immune response ([8]; Jerne plaque test) was “increased”. For the same substance, the Cellular immune response ([8]; footpad swelling test) was “increased”, the “Proportions of T-helper and T suppressor/cytotoxic cells” value ([8]; spleen and thymus) was “altered proportions of T-helper and T suppressor/cytotoxic cells” and the “Wound cleaning and formation of new tissue versus saline” value (non-healing wounds; 271 patients, 5 mL twice daily topically for 21 days) was “significantly superior to saline”. For the same substance, the “Adverse events, patients reporting” value (non-healing wounds; topical, 21 days, most frequent was slight pain) was 12%, the “Binding of gp120 of HIV-1 to cells” value [9] was “is blocked” and the “Regeneration of hematopoietic stem cells” value (hematopoietic stem cells) was “stimulated regeneration of hematopoietic stem cells”. The “Reduction of LV or behavioral deficits” value ([10]; by 7 days) was “not effective”, the “Decrease in lesion volume (LV)” value [10, 17] was 49% and the “Improvement of BBB score” value [10, 17] was 158%. The “Treatment outcome, HIV associated psoriasis” value [11, 18] was “successfully treated”, the “Treatment outcome, eczema” value [11, 18] was “successfully treated” and the “Treatment outcome, pustular psoriasis” value ([11]; one patient, two cycles at 0.5 mL/kg body weight) was “successfully treated”. For the same substance, the “Treatment outcome, chronic actinic dermatitis” value [11, 19] was “successfully treated”, the “Treatment outcome, pemphigus vulgaris” value [11, 19] was “successfully treated” and the “Induction of chromosomally integrated HIV-1 provirus” value [12] was “failed to induce”. The “Production of proinflammatory cytokines and superoxide anion” value (activated microglia) was “suppresses the production of proinflammatory cytokines and superoxide anion”, the “Number of macrophages infiltrating a skin blister” value [13] was “increased the number of macrophages infiltrating a skin blister” and the “Effects of cortisone on wounds” value (wounds [14]) was “reverse the effects of cortisone on wounds”. The “Reduction in wound surface” value (wounds [15]) was 74.9%.
